Tests used:
[1] = tested on: AKT serine-473 phosphorylation in PC-3 cells; test: In vitro phospho-AKT serine 473 cellular assay; type: cell-based; settings: Homo sapiens; PC-3 cells stimulated with EGF; first nine specific compounds; read-out: EC50 activity level, inhibition of AKT serine-473 phosphorylation
Experimental: b. In Vitro Phospho-AKT Serine 473 Cellular Assay
The assay measures a test compound's inhibition of AKT serine-473 phosphorylation in human prostate adenocarcinoma derived PC-3 (ATCC CRL-1435) cells that have been stimulated with epidermal growth factor (EGF).
The PC-3 cell line is maintained in RPMI1640 media supplemented with 10% FBS, 2 mM Glutamine, and 10 mM HEPES pH 7.4 at 37° C. in a 5% CO2 humidified incubator.
Cells are seeded in 384-well plates at 7,000 cells/well in 50 μl growth media. After 24 hours, growth media is removed and replaced with RPMI1640 containing no FBS. Cells are treated with 10 concentrations of test compounds or DMSO alone for controls (final DMSO concentration 0.5%) and incubated at 37° C. for 30 minutes. Cells are then stimulated for 10 minutes with 100 ng/ml EGF (final concentration). One column of controls is not stimulated with EGF to observe the signal ratio between stimulated and non-stimulated cells. After 10 minutes, compounds and stimulation media are removed and replaced with 25 μl lysis buffer containing protease inhibitors and phosphatase inhibitors. This buffer contains detergent to bring about cellular disruption. […] Following the transfer of lysate to the MSD plate, AKT in the lysate is captured on the coated antibody by incubation on a shaker at 4° C. for 16 hours. Following the capture step the plate is washed and then incubated for two hours with an antibody to S473 phosphorylated AKT which is conjugated with a Sulfo-Tag. This tag gives a signal when in proximity to the electrode on the base of the MSD plate. Binding the tagged antibody to the captured protein allow detection on a MSD reader.
EC50 values are calculated using MDL Assay Explorer 3.0.1.8 fitting a sigmoidal curve with a variable slope.

[2] = tested on: PC3 cells; test: In vitro cell proliferation assay; type: cell-based, human; settings: Homo sapiens, PC-3, with PC3 cells; values tied to compounds by order of Table 1
In short: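 PC3 (or MDAMB361.1) cells, ~10^3/well, settled overnight, then exposed to compound for 3 days; viability read by CellTiter-Glo luminescence (RLU). Alternatively, 4-day compound exposure followed by Alamar Blue for 6 h, fluorescence 544/590 nm; EC50 from sigmoidal dose-response fit.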

[3] = biological target: mTOR enzyme (mTOR(1360-2549)+GBL) (Homo sapiens, UniProt P42345); test: In vitro mTOR kinase assay (TR-FRET); type: biochemical; settings: 0.25 nM mTOR+GBL, 8 uM ATP; values tied to compounds by order of Table 1; 'x or y' = two alternative values for separated diastereomers of unassigned stereochemistry; read-out: activity level (Ki) in the mTOR kinase assay
In short: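 Compounds were tested in 10-point dose curves from 10 uM top final concentration. The reaction was stopped with 2 nM Tb-anti-p4E-BP1 (T37/T46) antibody plus 10 mM EDTA for 30 minutes, and phospho-4E-BP1 was detected by TR-FRET. Ki apparent was fitted with the Morrison ATP-competitive tight-binding equation.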

Sequence of mTOR enzyme (mTOR(1360-2549)+GBL) (P42345 1360-2549, species assumed): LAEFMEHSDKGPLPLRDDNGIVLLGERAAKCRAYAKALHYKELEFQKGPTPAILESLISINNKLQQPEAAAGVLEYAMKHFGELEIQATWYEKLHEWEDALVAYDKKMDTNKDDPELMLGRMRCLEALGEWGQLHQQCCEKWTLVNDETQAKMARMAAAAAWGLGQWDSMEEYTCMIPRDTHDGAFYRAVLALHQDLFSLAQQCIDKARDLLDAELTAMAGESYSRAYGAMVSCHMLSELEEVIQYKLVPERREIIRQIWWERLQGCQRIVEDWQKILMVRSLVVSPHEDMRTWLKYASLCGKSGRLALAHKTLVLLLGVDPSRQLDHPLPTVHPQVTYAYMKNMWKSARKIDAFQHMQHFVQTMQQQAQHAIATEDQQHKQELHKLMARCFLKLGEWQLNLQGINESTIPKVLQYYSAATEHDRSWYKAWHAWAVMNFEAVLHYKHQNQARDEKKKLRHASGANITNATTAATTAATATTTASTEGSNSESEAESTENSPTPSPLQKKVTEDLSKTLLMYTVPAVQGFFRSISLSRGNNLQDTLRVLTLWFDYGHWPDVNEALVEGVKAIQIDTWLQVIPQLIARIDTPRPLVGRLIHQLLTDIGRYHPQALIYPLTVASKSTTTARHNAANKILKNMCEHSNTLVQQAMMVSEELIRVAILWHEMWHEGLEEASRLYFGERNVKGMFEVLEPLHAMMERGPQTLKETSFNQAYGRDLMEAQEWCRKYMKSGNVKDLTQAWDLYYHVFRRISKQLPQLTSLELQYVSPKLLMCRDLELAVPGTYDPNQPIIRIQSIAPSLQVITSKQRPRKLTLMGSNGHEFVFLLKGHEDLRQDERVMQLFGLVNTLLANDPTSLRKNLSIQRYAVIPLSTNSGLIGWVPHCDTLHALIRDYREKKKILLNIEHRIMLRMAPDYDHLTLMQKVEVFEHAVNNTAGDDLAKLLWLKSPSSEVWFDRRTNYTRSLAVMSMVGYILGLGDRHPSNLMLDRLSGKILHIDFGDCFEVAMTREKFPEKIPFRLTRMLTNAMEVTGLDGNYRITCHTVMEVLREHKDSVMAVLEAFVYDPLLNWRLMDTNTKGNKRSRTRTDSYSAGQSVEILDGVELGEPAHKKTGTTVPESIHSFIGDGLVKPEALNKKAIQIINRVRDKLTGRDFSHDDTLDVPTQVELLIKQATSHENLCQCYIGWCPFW
Sequence of mTOR enzyme (mTOR(1360-2549)+GBL) (Q9BVC4 whole entry partner, species assumed): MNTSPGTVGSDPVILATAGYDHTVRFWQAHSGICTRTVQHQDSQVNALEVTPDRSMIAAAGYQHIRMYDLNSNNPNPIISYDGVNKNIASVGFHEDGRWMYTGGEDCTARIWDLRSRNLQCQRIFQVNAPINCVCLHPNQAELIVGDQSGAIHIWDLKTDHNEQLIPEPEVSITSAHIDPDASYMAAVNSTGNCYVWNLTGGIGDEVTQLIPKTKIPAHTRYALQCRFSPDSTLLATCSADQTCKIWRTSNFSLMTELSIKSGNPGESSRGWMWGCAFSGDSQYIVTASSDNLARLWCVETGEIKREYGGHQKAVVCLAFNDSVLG

Row | Structure (SMILES) | EC50 [1] [nM] | EC50 [2] [nM] | Ki [3] [nM]
1 | C[C@H]1COCCN1c1nc(-c2ccc(NC(=O)NCC(F)(F)F)cc2)nc2c1COCC2 [Example 23, (S)-1-(4-(4-(3-methylmorpholino)-7,8-dihydro-5H-pyrano[4,3-d]pyrimidin-2-yl)phenyl)-3-(2,2,2-trifluoroethyl)urea] | 49 | 993 | 16
2 | C[C@H]1COCCN1c1nc(-c2ccc(NC(=O)Nc3cnn(C)c3)cc2)nc2c1COCC2 [Example 22, (S)-1-(1-methyl-1H-pyrazol-4-yl)-3-(4-(4-(3-methylmorpholino)-7,8-dihydro-5H-pyrano[4,3-d]pyrimidin-2-yl)phenyl)urea] | 42 | 59 | 4
3 | CCNC(=O)Nc1ccc(-c2nc3c(c(N4CCOCC4)n2)COCC3)cc1 [Example 18, 1-ethyl-3-(4-(4-morpholino-7,8-dihydro-5H-pyrano[4,3-d]pyrimidin-2-yl)phenyl)urea] | 237 | – | –
4 | CCNC(=O)Nc1ccc(-c2nc3c(c(N4CCOC[C@@H]4CC)n2)COCC3)cc1 [Example 19, (S)-1-ethyl-3-(4-(4-(3-ethylmorpholino)-7,8-dihydro-5H-pyrano[4,3-d]pyrimidin-2-yl)phenyl)urea] | 6 | 88 | 1
5 | C[C@H]1COCCN1c1nc(-c2ccc(NC(=O)Nc3ccn(C)n3)cc2)nc2c1COCC2 [Example 21, (S)-1-(1-methyl-1H-pyrazol-3-yl)-3-(4-(4-(3-methylmorpholino)-7,8-dihydro-5H-pyrano[4,3-d]pyrimidin-2-yl)phenyl)urea] | 108 | 189 | 3
6 | CCNC(=O)Nc1ccc(-c2nc3c(c(N4CCOC[C@@H]4C)n2)CCCO3)cc1 [Example 16, (S)-1-ethyl-3-(4-(4-(3-methylmorpholino)-6,7-dihydro-5H-pyrano[2,3-d]pyrimidin-2-yl)phenyl)urea] | 10 | 231 | 2
7 | CCNC(=O)Nc1ccc(-c2nc3c(c(N4CCOC[C@@H]4C)n2)COCC3)cc1 [Example 17, (S)-1-ethyl-3-(4-(4-(3-methylmorpholino)-7,8-dihydro-5H-pyrano[4,3-d]pyrimidin-2-yl)phenyl)urea] | 22 | 175 | 4
8 | C[C@H]1COCCN1c1nc(-c2ccc(NC(=O)Nc3ccon3)cc2)nc2c1COCC2 [Example 20, (S)-1-(isoxazol-3-yl)-3-(4-(4-(3-methylmorpholino)-7,8-dihydro-5H-pyrano[4,3-d]pyrimidin-2-yl)phenyl)urea] | 15 | 94 | 2
9 | CCNC(=O)Nc1ccc(-c2nc3c(c(N4CCOCC4)n2)CCCO3)cc1 [Example 15, 1-ethyl-3-(4-(4-morpholino-6,7-dihydro-5H-pyrano[2,3-d]pyrimidin-2-yl)phenyl)urea] | 85 | 194 | –

From patent US20100331305A1, “OXO-HETEROCYCLE FUSED PYRIMIDINE COMPOUNDS, COMPOSITIONS AND METHODS OF USE” (Genentech, Inc., priority 2009, published 2010)
